Source: patent US9546153B2, “Bicyclic heterocycle substituted pyridyl compounds useful as kinase modulators” (BRISTOL-MYERS SQUIBB COMPANY, priority 2012, dated 2017)
Like-named read-outs stand apart in the source and are kept apart here.

Key:
IRAK4 = IRAK4 (Homo sapiens (Human), UniProt Q9NWZ3); assay: IRAK4 Inhibition Assay; type: biochemical; conditions: ATP 500 μM; IRAK4 0.6 nM; 60 min at room temperature
Experimental: The assays were performed in U-bottom 384-well plates. […] The reaction was initiated by the combination of IRAK4 with substrates and test compounds. The reaction was incubated at room temperature for 60 min. and terminated by adding 45 μL of 35 mM EDTA to each sample. The reaction mixture was analyzed on the Caliper LABCHIP® 3000 (Caliper, Hopkinton, Mass.) by electrophoretic separation of the fluorescent substrate and phosphorylated product.

[1] = system: TLR2 induced IL-6 in peripheral blood mononuclear cells (PBMCs); assay: PBMC TLR2 Induced IL-6 Assay; type: cell-based, human; conditions: human PBMCs, 10 μg/ml lipoteichoic acid for 5 hours, IL-6 by ELISA; for IC50: value without asterisk, read-out: Cell IC50; for EC50: EC50 determinations are indicated with an asterisk, read-out: Cell EC50 (asterisk)
Summary of the method: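 IL-6 ELISA of supernatants after a 5 h challenge with the TLR2 agonist lipoteichoic acid (10 μg/ml). Before stimulation, human PBMCs (250000 cells/well; RPMI, 10% heat-inactivated FCS) received compound for 30 min at 37° C. Values given as IC50 or EC50.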

IRAK4, sequence (Q9NWZ3 whole entry, species assumed): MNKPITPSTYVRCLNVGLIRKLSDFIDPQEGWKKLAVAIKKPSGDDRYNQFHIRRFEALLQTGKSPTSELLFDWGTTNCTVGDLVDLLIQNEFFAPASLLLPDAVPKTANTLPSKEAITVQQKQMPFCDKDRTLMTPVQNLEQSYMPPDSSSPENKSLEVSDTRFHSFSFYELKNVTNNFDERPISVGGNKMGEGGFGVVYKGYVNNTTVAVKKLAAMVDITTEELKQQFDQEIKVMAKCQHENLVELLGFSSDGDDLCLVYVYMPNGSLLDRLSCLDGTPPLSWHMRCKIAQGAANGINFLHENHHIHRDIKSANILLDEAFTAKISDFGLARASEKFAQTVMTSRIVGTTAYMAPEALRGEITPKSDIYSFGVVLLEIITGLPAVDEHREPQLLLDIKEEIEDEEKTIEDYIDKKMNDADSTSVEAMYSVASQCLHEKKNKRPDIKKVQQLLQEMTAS

Row | Structure (SMILES) | IC50 (IRAK4) [µM] | IC50 [1] [µM] | IC50 ([1]; Homo sapiens, PBMC, 5 h) [µM] | EC50 ([1]; Homo sapiens, PBMC, 5 h) [µM] | EC50 [1] [µM]
1 | CC(C)(O)[C@H](F)CNC(=O)c1cnc(Nc2ccn3nccc3c2)cc1NC1CCC(F)(F)C1 (stereo partly drawn) [Example 299] | 0.0017 | 0.42 | – | – | –
2 | CC(C)(O)[C@H](F)CNC(=O)c1cnc(Nc2nc3ccnn3cc2F)cc1NC1CCC(F)C1 (stereo partly drawn) [Example 410] | 0.0032 | 0.34 | – | – | –
3 | CC(C)Nc1cc(Nc2ccc3ncsc3c2)ncc1C(=O)NCC[C@@H](C)NC(=O)[C@@H]1CC[C@H](F)C1 [Example 198] | 0.0026 | – | 0.307 | – | –
4 | CCNC(=O)c1cnc(Nc2ccc3ncsc3c2)cc1N[C@@H](c1ccccc1)[C@H](O)CO [Example 144] | 0.0074 | – | 0.199 | – | –
5 | CC(C)Nc1cc(Nc2ccc3ncsc3c2)ncc1C(=O)N[C@H]1CC[C@H]([N+](=O)[O-])CC1 [Example 523, 6-(benzo[d]thiazol-6-ylamino)-4-(isopropylamino)-N-((trans)-4-nitrocyclohexyl)nicotinamide] | 0.0054 | – | – | 0.365 | –
6 | CC(C)(O)C1CCC(NC(=O)c2cnc(Nc3ccc4ncsc4c3)cc2NC2CCCOC2)CC1 (stereo not drawn) [Example 490] | 0.0042 | – | – | 0.277 | –
7 | CC(C)(O)[C@H](F)CNC(=O)c1cnc(Nc2ccc3ncc(C#N)cc3n2)cc1NC1CCC(F)(F)C1 (stereo partly drawn) [Example 406] | 0.0118 | 1.32 | – | – | –
8 | CC(=O)N[C@H]1CC[C@H](NC(=O)c2cnc(Nc3nc4ccnn4cc3F)cc2NC(C)C)CC1 [Example 512] | 0.0174 | – | 0.602 | – | –
9 | CC(C)(F)CNc1cc(Nc2ccc3ncccc3n2)ncc1C(=O)NC[C@@H](F)C(C)(C)O [Example 134] | 0.0088 | – | 0.447 | – | –
10 | CC1COCCC1Nc1cc(Nc2ccc3ncsc3c2)ncc1C(=O)NC[C@@H](F)C(C)(C)O (stereo partly drawn) [Example 233] | 0.0074 | 0.469 | – | – | –
11 | CC(C)(O)[C@H](F)CNC(=O)c1cnc(Nc2ccc3nccnc3c2)cc1NC1CC1 [Example 82] | 0.008 | – | 0.366 | – | –
12 | CC(C)(O)[C@H](F)CNC(=O)c1cnc(Nc2ncc3ncccc3n2)cc1NC1CCC(F)C1 (stereo partly drawn) [Example 447] | 0.002 | 1.25 | – | – | –
13 | CC(C)(O)[C@H](F)CNC(=O)c1cnc(Nc2ccn3nccc3c2)cc1NC1CCCC1(F)F (stereo partly drawn) [Example 297] | 0.0057 | – | 0.535 | – | –
14 | CC(C)Nc1cc(Nc2ccc3ncsc3c2)ncc1C(=O)NC1CCc2[nH]ncc2C1 (stereo not drawn) [Example 494] | 0.0085 | – | – | 0.209 | –
15 | CC(C)NC(=O)N[C@@H](C)CCNC(=O)c1cnc(Nc2ccc3ncsc3c2)cc1NC(C)C [Example 181] | 0.0076 | – | 0.453 | – | –
16 | CC(C)Nc1cc(Nc2ccc3ncncc3c2)ncc1C(=O)NC[C@@H](F)C(C)(C)O [Example 48] | 0.0031 | – | 0.511 | – | –
17 | CC(=O)N[C@H]1CC[C@H](NC(=O)c2cnc(Nc3ccc4ncsc4n3)cc2NC2CCOCC2)CC1 [Example 514] | 0.0018 | – | – | 0.026 | –
18 | CCNc1cc(Nc2ccc3ncsc3c2)ncc1C(=O)NC[C@@H](F)C(C)(C)O [Example 96] | 0.0043 | – | 0.17 | – | –
19 | CC(C)(O)[C@H](F)CNC(=O)c1cnc(Nc2ccc3ncsc3c2)cc1NC1COCCC1F (stereo partly drawn) [Example 235] | 0.0017 | – | 0.263 | – | –
20 | CC(C)(O)[C@H](F)CNC(=O)c1cnc(Nc2ccc3ncccc3n2)cc1NC1CCOCC1F (stereo partly drawn) [Example 439] | 0.0031 | 0.064 | – | – | –
21 | CC(C)(O)[C@H](F)CNC(=O)c1cnc(Nc2ccc3ncsc3c2)cc1N[C@@H](c1cc(F)cc(F)c1)[C@H](O)CO [Example 65] | 0.0039 | – | 0.17 | – | –
22 | CNC(=O)[C@H]1CC[C@H](NC(=O)c2cnc(Nc3cnc4[nH]ccc4c3)cc2NC(C)C)CC1 [Example 507] | 0.012 | – | 0.523 | – | –
23 | CC(C)(F)CNc1cc(Nc2ccc3ncccc3c2)ncc1C(=O)NC[C@@H](F)C(C)(C)O [Example 127] | 0.0041 | – | 0.472 | – | –
24 | CC(C)(O)[C@H](F)CNC(=O)c1cnc(Nc2ccc3nccn3n2)cc1NC1CCOCC1 [Example 279] | 0.004 | – | 0.292 | – | –
25 | CC(C)(O)[C@H](F)CNC(=O)c1cnc(Nc2ccc3ncsc3c2)cc1N[C@H]1CCC(CCO)C1 (stereo partly drawn) [Example 66] | 0.0023 | 0.058 | – | – | –
26 | CC(C)(O)[C@H](F)CNC(=O)c1cnc(Nc2ccc3ncoc3c2)cc1NCC(F)(F)F [Example 110] | 0.0126 | – | 0.728 | – | –

Row | Structure (SMILES) | IC50 (IRAK4) [µM] | IC50 [1] [µM] | IC50 ([1]; Homo sapiens, PBMC, 5 h) [µM] | EC50 ([1]; Homo sapiens, PBMC, 5 h) [µM] | EC50 [1] [µM]
27 | CC(C)(O)[C@H](F)CNC(=O)c1cnc(Nc2ccc3ncsc3c2)cc1NC(C1CC1)C1CC1 [Example 101] | 0.0548 | – | 0.57 | – | –
28 | CC(C)(O)[C@H](F)CNC(=O)c1cnc(Nc2ccc3ncsc3n2)cc1NCC(F)(F)F [Example 310] | 0.0019 | – | 0.173 | – | –
29 | CC(C)(O)[C@H](F)CNC(=O)c1cnc(Nc2ccc3ncsc3c2)cc1Nc1ccc(C(=O)NCCO)cc1 [Example 325] | 0.0049 | – | 0.853 | – | –
30 | CNC(=O)[C@H]1CC[C@H](NC(=O)c2cnc(Nc3nc4ccnn4cc3F)cc2NC2CCOCC2)CC1 [Example 509] | 0.0095 | – | 1.2 | – | –
31 | CC(C)(O)[C@H](F)CNC(=O)c1cnc(Nc2ccc3ncsc3c2)cc1NC1CCCOC1 (stereo partly drawn) [Example 54] | 0.0036 | 0.258 | – | – | –
32 | CC(C)(O)[C@H](F)CNC(=O)c1cnc(Nc2ccc3ncc(C#N)cc3n2)cc1NC1CCC(F)C1 (stereo partly drawn) [Example 411] | 0.0024 | 0.092 | – | – | –
33 | CC(C)Nc1cc(Nc2ccn3ncc(F)c3n2)ncc1C(=O)NC[C@@H](F)C(C)(C)O [Example 244] | 0.0019 | – | 0.156 | – | –
34 | CC(C)(O)[C@H](F)CNC(=O)c1cnc(Nc2ccc3ncsc3c2)cc1NC1CCC(O)C1 (stereo partly drawn) [Example 37] | 0.0039 | – | 0.297 | – | –
35 | CC(C)(O)[C@H](F)CNC(=O)c1cnc(Nc2ccn3nccc3n2)cc1NC12CCC(O)(CC1)C2 [Example 141] | 0.0022 | – | 0.279 | – | –
36 | CC(=O)NCCCCNC(=O)c1cnc(Nc2ccc3ncsc3c2)cc1NC(C)C [Example 209] | 0.0053 | – | 0.875 | – | –
37 | CC(C)(O)[C@H](F)CNC(=O)c1cnc(Nc2ccc3ncsc3c2)cc1Nc1ccc(C(=O)NCC(F)(F)F)cc1 [Example 324] | 0.0107 | – | 0.19 | – | –
38 | CC(C)(O)[C@H](F)CNC(=O)c1cnc(Nc2ccc3ncsc3c2)cc1NCc1ccc(Cl)cc1 [Example 167] | 0.0098 | – | 0.526 | – | –
39 | CC(C)(O)[C@H](F)CNC(=O)c1cnc(Nc2ccc3ncsc3c2)cc1NC1CCSCC1 [Example 384] | 0.0035 | – | 0.18 | – | –
40 | CC(C)(O)[C@H](F)CNC(=O)c1cnc(Nc2nc3scnc3cc2F)cc1NC1CCOCC1F (stereo partly drawn) [Example 469] | 0.0031 | – | 0.476 | – | –
41 | CC(=O)N[C@@H](C)CCNC(=O)c1cnc(Nc2ccc3ncsc3c2)cc1NC(C)C [Example 178] | 0.0138 | – | 0.405 | – | –
42 | CC(C)Nc1cc(Nc2ccc3ncsc3c2)ncc1C(=O)NC[C@@H](F)C(O)C(C)C (stereo partly drawn) [Example 13] | 0.003 | 0.107 | – | – | –
43 | CC(C)(O)[C@H](F)CNC(=O)c1cnc(Nc2ccn3ncc(F)c3n2)cc1NC1CC(F)(F)C1 [Example 265] | 0.0033 | – | 0.217 | – | –
44 | CC(C)Nc1cc(Nc2ccn3ncc(Cl)c3c2)ncc1C(=O)NC[C@@H](F)C(C)(C)O [Example 295] | 0.0048 | – | 0.446 | – | –
45 | CC(C)(O)[C@H](F)CNC(=O)c1cnc(Nc2ccc3ncc(C#N)cc3n2)cc1NC1CCC(F)C1 (stereo partly drawn) [Example 412] | 0.0026 | 0.109 | – | – | –
46 | CC(CO)Nc1cc(Nc2nc3scnc3cc2F)ncc1C(=O)NC[C@@H](F)C(C)(C)O (stereo partly drawn) [Example 460] | 0.0033 | 0.553 | – | – | –
47 | CC(C)Nc1cc(Nc2ccc3ncsc3c2)ncc1C(=O)NCC(F)(F)C(C)(C)O [Example 171] | 0.0043 | – | 0.571 | – | –
48 | CC(C)(O)C1CCC(NC(=O)c2cnc(Nc3ccc4ncsc4c3)cc2NC2CCCOC2)CC1 (stereo not drawn) [Example 491] | 0.005 | – | – | – | 0.281
49 | CNC(=O)[C@H]1CC[C@H](NC(=O)c2cnc(Nc3ccc4ncsc4n3)cc2NC2CCOCC2)CC1 [Example 510] | 0.0015 | – | – | 0.028 | –
50 | CC(C)(O)[C@H](F)CNC(=O)c1cnc(Nc2ccc3nccnc3c2)cc1NC1CCCOC1 (stereo partly drawn) [Example 71] | 0.0138 | – | 0.415 | – | –
51 | CC(C)(O)[C@H](F)CNC(=O)c1cnc(Nc2nc3ccnn3cc2F)cc1NC1CCCOC1 (stereo partly drawn) [Example 422] | 0.0113 | – | 0.753 | – | –
